Assay results from patent US7829563B2, “Aminoamides as orexin antagonists” (Hoffmann-La Roche Inc., priority 2007, dated 2010).

What follows are molecules tested against T1, human orexin-2 (hOX2) receptors (Homo sapiens, UniProt O43614) (assay: Intracellular Ca2+ mobilization assay (FLIPR), antagonism of orexin-A). Conditions: CHO(dHFr−) cells stably expressing hOX2; orexin-A at EC80 as agonist; Kb=IC50/(1+[A]/EC50); read-out: Kb (μM) OX2R (human).
T1 construct: expressed in transfected cells
T1 sequence (O43614 1-444): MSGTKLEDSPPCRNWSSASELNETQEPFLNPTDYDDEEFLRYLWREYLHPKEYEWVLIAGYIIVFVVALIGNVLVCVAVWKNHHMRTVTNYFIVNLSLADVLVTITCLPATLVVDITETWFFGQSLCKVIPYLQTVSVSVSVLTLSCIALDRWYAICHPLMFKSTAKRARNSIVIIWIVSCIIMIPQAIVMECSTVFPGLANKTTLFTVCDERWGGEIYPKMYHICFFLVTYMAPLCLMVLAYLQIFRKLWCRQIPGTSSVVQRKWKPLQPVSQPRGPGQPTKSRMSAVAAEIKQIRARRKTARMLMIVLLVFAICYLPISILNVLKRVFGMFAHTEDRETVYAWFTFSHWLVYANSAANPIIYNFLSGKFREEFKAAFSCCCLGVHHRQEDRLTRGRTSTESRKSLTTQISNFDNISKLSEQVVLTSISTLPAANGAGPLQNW
Format: cell-based
Experimental: R^7 and R^8 in scheme 5 are hydrogen, and the other substituents are as described above The compounds were investigated in accordance with the test given hereinafter. Intracellular Ca^2+ Mobilization Assay
The Chinese Hamster Ovary (dHFr−) mutant cell line stably expressing human orexin-1 (hOX1) or human orexin-2 (hOX2) receptors were maintained in Dulbecco's Modified Eagle Medium (1×) with GlutaMax™ 1, 4500 mg/L D-Glucose and Sodium Pyruvate (Catalog No. 31966-021, Invitrogen, Carlsbad, Calif.), 5% dialyzed fetal calf serum (Catalog No. 26400-044), 100 μg/ml penicillin and 100 μg/ml streptomycin. The cells were seeded at 5×10^4 cells/well in the poly-D-lysine treated, 96-well, black/clear-bottomed plates (Catalog No. BD356640, BD Biosciences, Palo Alto, Calif.). 24 h later, the cells were loaded for 1 h at 37° C. with 4 μM Flou-4 acetoxymethyl ester (Catalog No. F-14202, Molecular Probes, Eugene, Oreg.) in FLIPR buffer (1×HBSS, 20 mM HEPES, 2.5 mM Probenecid). Hanks' Balanced Salt Solution (HBSS) (10×) (catalog No. 14065-049) and HEPES (1M) (catalog No. 15630-056) were purchased from Invitrogen, Carlsbad, Calif. Probenecid (250 mM) (catalog No. P8761) was from Sigma, Buchs, Switzerland. The cells were washed five times with FLIPR buffer to remove excess dye and intracellular calcium mobilization, [Ca^2+]i were measured using a Fluorometric Imaging Plate Reader (FLIPR-96, Molecular Devices, Menlo Park, Calif.) as described previously (Malherbe et al., Mol. Pharmacol., 64, 823-832, 2003). Orexin A (catalog No. 1455, Toris Cookson Ltd, Bristol, UK) was used as agonist. Orexin A ([…] stock solution in DMSO) was diluted in FLIPR buffer+0.1% BSA. The EC50 and EC80 values of orexin-A were measured daily from standard agonist concentration-response curves in CHO(dHFr−)-OX1R and —OX2R cell lines. All compounds were dissolved in 100% DMSO. Inhibition curves were determined by addition of 11 concentrations (0.0001-10 μM) of inhibitory compounds and using EC80 value of orexin-A as agonist (a concentration which gave 80% of max agonist response, determined daily). The antagonists were applied 25 min (incubation at 37° C.) before the application of the agonist. Responses were measured as peak increase in fluorescence minus basal, normalized to the maximal stimulatory effect induced by EC80 value of orexin-A or orexin-B. Inhibition curves were fitted according to the Hill equation: y=100/(1+(x/IC50)^nH), where nH=slope factor using Excel-fit 4 software (Microsoft). Kb values were calculated according to the following equation Kb=IC50/(1+[A]/EC50) where A is the concentration of agonist added which is very close to agonist EC80 value, and IC50 and EC50 values were derived from the antagonist inhibition and orexin-A or B agonist curves, respectively.

Row | SMILES | Kb [µM]
1 | CNC(=O)[C@H](N[C@H](CCc1ccc(C(F)(F)F)nc1)c1ccc(Cl)c(C)c1)c1ccccc1 (racemic) [Example 243, (S,R)-2-[(S,R)-1-(4-Chloro-3-methyl-phenyl)-3-(6-trifluoromethyl-pyridin-3-yl)-propylamino]-N-methyl-2-phenyl-acetamide] | 0.0122
2 | CNC(=O)[C@H](N[C@H](CCc1ccc(C(F)(F)F)nc1)c1cccc(OC(F)(F)F)c1)c1ccccc1 (racemic) [Example 226, (S,R)—N-Methyl-2-phenyl-2-[(S,R)-1-(3-trifluoromethoxy-phenyl)-3-(6-trifluoromethyl-pyridin-3-yl)-propylamino]-acetamide] | 0.0195
3 | CNC(=O)[C@H](N[C@@H](CCc1ccc(C(F)(F)F)cc1)c1ccc(OC)c(OC)c1)c1ccc(F)cc1 (racemic) [Example 34, (S,R)-2-[(R,S)-1-(3,4-Dimethoxy-phenyl)-3-(4-trifluoromethyl-phenyl)-propylamino]-2-(4-fluoro-phenyl)-N-methyl-acetamide] | 0.0049
4 | CNC(=O)[C@H](N[C@@H](CCc1ccc(Cl)cc1)c1ccc(OC)c(OC)c1)c1ccccc1 [Example 163, (R)-2-[(S)-3-(4-Chloro-phenyl)-1-(3,4-dimethoxy-phenyl)-propylamino]-N-methyl-2-phenyl-acetamide] | 0.0011
5 | CNC(=O)[C@H](N[C@@H](CCc1ccc(Cl)cc1)c1ccc2c(c1)CCO2)c1ccccc1 [Example 96, (R)-2-[(S)-3-(4-Chloro-phenyl)-1-(2,3-dihydro-benzofuran-5-yl)-propylamino]-N-methyl-2-phenyl-acetamide] | 0.0018
6 | CNC(=O)[C@H](N[C@@H](CCc1ccc(C(F)(F)F)cc1)c1cc(C)ccc1F)c1ccc(F)cc1 [Example 124, (R)-2-[(S)-1-(2-Fluoro-5-methyl-phenyl)-3-(4-trifluoromethyl-phenyl)-propylamino]-2-(4-fluoro-phenyl)-N-methyl-acetamide] | 0.0123
7 | CNC(=O)[C@H](N[C@@H](CCc1ccc(C(F)(F)F)cc1)c1cccc(OC(F)F)c1)c1ccc(C)cc1 [Example 389, (R)-2-[(S)-1-(3-Difluoromethoxy-phenyl)-3-(4-trifluoromethyl-phenyl)-propylamino]-N-methyl-2-p-tolyl-acetamide] | 0.0048
8 | CNC(=O)[C@H](N[C@@H](CCc1ccc(C(F)(F)F)cc1)c1cccnc1OC)c1ccccc1 (racemic) [Example 179, (S,R)-2-[(R,S)-1-(2-Methoxy-pyridin-3-yl)-3-(4-trifluoromethyl-phenyl)-propylamino]-N-methyl-2-phenyl-acetamide] | 0.0081
9 | CNC(=O)[C@H](N[C@@H](CCc1ccc(C(F)(F)F)cc1)c1ccc2c(c1)OCCN2C)c1ccccc1 [Example 115, (R)—N-Methyl-2-[(S)-1-(4-methyl-3,4-dihydro-2H-benzo[1,4]oxazin-7-yl)-3-(4-trifluoromethyl-phenyl)-propylamino]-2-phenyl-acetamide] | 0.0114
10 | CNC(=O)[C@H](N[C@@H](CCc1ccc(C(F)(F)F)cc1)c1ccc(Cl)c(OC)c1)c1ccccc1 (racemic) [Example 177, (S,R)-2-[(R,S)-1-(4-Chloro-3-methoxy-phenyl)-3-(4-trifluoromethyl-phenyl)-propylamino]-N-methyl-2-phenyl-acetamide] | 0.0099
11 | CNC(=O)[C@H](N[C@@H](CCc1ccc(C(F)(F)F)cc1)c1cc(C)on1)c1ccccc1 (racemic) [Example 302, (S,R)—N-Methyl-2-[(R,S)-1-(5-methyl-isoxazol-3-yl)-3-(4-trifluoromethyl-phenyl)-propylamino]-2-phenyl-acetamide] | 0.0161
12 | CNC(=O)[C@H](N[C@@H](CCc1ccc(C(F)(F)F)nc1)c1cc(Cl)ccc1OC)c1ccc(F)cc1 [Example 104, (R)-2-[(S)-1-(5-Chloro-2-methoxy-phenyl)-3-(6-trifluoromethyl-pyridin-3-yl)-propylamino]-2-(4-fluoro-phenyl)-N-methyl-acetamide] | 0.0148
13 | CNC(=O)[C@H](N[C@H](CCc1ccc(C(F)(F)F)cc1)c1ccc(Cl)c(OC)c1)c1ccccc1 (racemic) [Example 176, (S,R)-2-[(S,R)-1-(4-Chloro-3-methoxy-phenyl)-3-(4-trifluoromethyl-phenyl)-propylamino]-N-methyl-2-phenyl-acetamide] | 0.0086
14 | CNC(=O)[C@H](N[C@@H](CCc1ccc(C(F)(F)F)nc1)c1ccc(C)c(Cl)c1)c1ccccc1 (racemic) [Example 238, (S,R)-2-[(R,S)-1-(3-Chloro-4-methyl-phenyl)-3-(6-trifluoromethyl-pyridin-3-yl)-propylamino]-N-methyl-2-phenyl-acetamide] | 0.0196
15 | CNC(=O)[C@H](N[C@@H](CCc1ccc(C(F)(F)F)nc1)c1ccc(F)c(OC)c1)c1ccc(Cl)cc1 (racemic) [Example 230, (S,R)-2-(4-Chloro-phenyl)-2-[(R,S)-1-(4-fluoro-3-methoxy-phenyl)-3-(6-trifluoromethyl-pyridin-3-yl)-propylamino]-N-methyl-acetamide] | 0.0117
16 | CNC(=O)[C@H](N[C@@H](CCc1ccc(Cl)cc1)c1ccc(OC)c(OC)c1Cl)c1ccccc1 (racemic) [Example 40, (S,R)-2-[(R,S)-1-(2-Chloro-3,4-dimethoxy-phenyl)-3-(4-chloro-phenyl)-propylamino]-N-methyl-2-phenyl-acetamide] | 0.0068
17 | CNC(=O)[C@H](N[C@@H](CCc1ccc(OC)cc1)c1ccc(OC)c(OC)c1)c1ccccc1 (racemic) [Example 146, (S,R)-2-[(R,S)-1-(3,4-Dimethoxy-phenyl)-3-(4-methoxy-phenyl)-propylamino]-N-methyl-2-phenyl-acetamide] | 0.0132
18 | CNC(=O)[C@H](N[C@@H](CCc1ccc(Cl)cc1)c1ccc(OC)c(OC)c1)c1ccc(Cl)cc1 (racemic) [Example 319, (R,S)-2-(4-Chloro-phenyl)-2-[(S,R)-3-(4-chloro-phenyl)-1-(3,4-dimethoxy-phenyl)-propylamino]-N-methyl-acetamide] | 0.0086
19 | CCNC(=O)[C@H](N[C@@H](CCc1ccc(C(F)(F)F)nc1)c1ccc(F)c(C)c1)c1ccccc1 (racemic) [Example 340, (R,S)—N-Ethyl-2-[(S,R)-1-(4-fluoro-3-methyl-phenyl)-3-(6-trifluoromethyl-pyridin-3-yl)-propylamino]-2-phenyl-acetamide] | 0.0178
20 | CNC(=O)[C@H](N[C@@H](CCc1ccc(C(F)(F)F)cc1)c1cc(OC)ccn1)c1ccccc1 (racemic) [Example 210, (S,R)-2-[(R,S)-1-(4-Methoxy-pyridin-2-yl)-3-(4-trifluoromethyl-phenyl)-propylamino]-N-methyl-2-phenyl-acetamide] | 0.0096
21 | COc1ccc(C(CCc2ccc(C(F)(F)F)cc2)N[C@@H](C(=O)NCC2CC2)c2ccccc2)cc1OC (single isomer, unassigned) [Example 16, (R)-N-Cyclopropylmethyl-2-[(R or S)-1-(3,4-dimethoxy-phenyl)-3-(4-trifluoromethyl-phenyl)-propylamino]-2-phenyl-acetamide] | 0.0142
22 | CNC(=O)[C@H](N[C@H](CCc1ccc(Cl)cc1)c1ccc(OC)c(OC)c1Cl)c1ccccc1 (racemic) [Example 41, (S,R)-2-[(S,R)-1-(2-Chloro-3,4-dimethoxy-phenyl)-3-(4-chloro-phenyl)-propylamino]-N-methyl-2-phenyl-acetamide] | 0.0167
